Data as given in patent US20160175288A1, “MACROCYCLIC LACTONE COMPOUNDS AND METHODS FOR THEIR USE” (Elixir Medical Corporation, priority 2008, published 2016).

Legend:
MCP-1 = experiment: cytokine inhibition in LPS-activated macrophages, ELISA (MCP-1); assay type: cell-based; conditions: 10 nM
Protocol: (§1) In cell culture studies, macrophages were activated to secrete cytokines such as MMP-9 and MCP-1 by treating the cells to E Coli lippopolysaccharide (LPS). Inhibition of these cytokines upon treatment of the activated macrophages with Myolimus and rapamycin with 10 nM concentration was tested using ELISA assay.

MMP-9 = experiment: cytokine inhibition in LPS-activated macrophages, ELISA (MMP-9); assay type: cell-based; conditions: 10 nM
Protocol: as §1

human smooth muscle cell = experiment: in vitro human smooth muscle cell culture testing, incorporated thymidine; assay type: cell-based; conditions: exposure for 8 hours, concentrations 0.0001-1 μM
Protocol: The amounts of incorporated thymidine for samples of Myolimus of varying concentrations (0.0001, 0.001, 0.01, 0.1, and 1 μM) and of rapamycin of varying concentrations (0.0001, 0.001, 0.01, 0.1, and 1 μM) were measured after exposure for 8 hours (as shown in FIG. 1). The IC50 of both Myolimus and Rapamycin was 0.1 nM indicating potent anti-proliferative properties.

[1] = in vivo; cited from earlier work
[2] = cited from earlier work

Row | IC50 (human smooth muscle cell) | Structure (SMILES) | production of MCP-1 (MCP-1) | production of MCP-1 (MCP-1; listed as myolimus) | production of MMP-9 (MMP-9) | production of MMP-9 (MMP-9; listed as myolimus) | bioavailability [1] | solubility in water [2]
1 | 100 pM | CO[C@H]1C[C@@H]2CC[C@@H](C)[C@@](O)(O2)C(=O)C(=O)N2CCCC[C@H]2C(=O)O[C@H]([C@H](C)C[C@@H]2CC[C@@H](O)[C@H](OC)C2)CC[C@H](C)/C=C(\C)[C@@H](O)[C@@H](OC)C(=O)[C@H](C)C[C@H](C)/C=C/C=C/C=C/1C [Myolimus, 32-deoxorapamycin] | reduced the production | inhibiting the production | reduced the production | inhibiting production |  | 
2 | 100 pM | CO[C@H]1C[C@@H]2CC[C@@H](C)[C@@](O)(O2)C(=O)C(=O)N2CCCC[C@H]2C(=O)O[C@H]([C@H](C)C[C@@H]2CC[C@@H](O)[C@H](OC)C2)CC(=O)[C@H](C)/C=C(\C)[C@@H](O)[C@@H](OC)C(=O)[C@H](C)C[C@H](C)/C=C/C=C/C=C/1C [Rapamycin] | did not have any impact |  | increased the production |  | very low and variable | only very slightly soluble
